{"source": "paper PMC12769565", "about": "“Design, synthesis and biological activity of glycoconjugated ADAMTS5 exosite inhibitors: applications in osteoarthritis and ovarian cancer models” (Scientific Reports, 2025)", "key": {"[1]": {"system": "A2780 OC cells over-expressing Rab25", "experiment": "OC cell migration on cell-derived matrix (pseudopod length, directionality, velocity)", "format": "cell-based", "conditions": "cells on CDM", "procedure": "A2780 OC cells over-expressing Rab25 (A2780-Rab25), generated in G. Mills lab[71], and telomerase-immortalised human fibroblasts (TIFs) were a gift from Jim Norman lab (CRUK Scotland Institute). A2780-Rab25 cells were grown in RPMI media (Gibco), supplemented with 10% (v/v) FBS. TIFs were grown in DMEM, supplemented with 10% FBS. To maintain Rab25 over-expression, A2780-Rab25 cells were selected with 0.4 mg/ml G418 every 10 passages.\nCDMs were generated as previously described[72] in 12 well plates. Wells were coated with 0.2% gelatin for 60 min at 37 °C, crosslinked with 1% glutaraldehyde for 30 min at room temperature, quenched with 1 M glycine for 20 min at room temperature and equilibrated in DMEM for 30 min at 37 °C. TIFs (2.5 × 10^5 per well) were seeded for 24 h to achieve confluency and grown in the presence of 50 µg/ml ascorbic acid for 9 days. CDMs were washed with PBS, incubated with extraction buffer (20 mM NH4OH, 0.5% Triton X-100 in PBS with Ca^2+ and Mg^2+) for ~ 2 min, until no intact cells were visible by phase, washed twice with PBS with Ca^2+ and Mg^2+ and treated with 15 µg/ml DNase for 1 h at 37 °C, 5% CO2. CDMs were washed twice with PBS with Ca^2+ and Mg^2+ and stored in PBS with Ca^2+ and Mg^2+ at 4 °C for up to one month.\nA2780-Rab25 cells (5 × 10^4 per well) were seeded onto a CDM-coated 12-well plate. Compound 2 was added 4 h after plating. Plates were imaged in a Nikon Inverted Ti eclipse microscope with Oko-lab environmental control chamber with a 10x/NA 0.45 objective. Cells were incubated at 37 °C and 5% CO2, images were acquired every 10 min for 12 h and more than 40 cells per well were quantified per biological replicate. Individual cell migration was manually tracked using MTrack2, a Fiji/ImageJ plugin. The chemotaxis tool plugin in Fiji/Image J (https://ibidi.com/chemotaxis-analysis/171-chemotaxis-and-migration-tool.html) was used to calculate the velocity and directionality of migrating cells."}, "[2]": {"system": "human OA cartilage explants", "experiment": "Aggrecan fragments released from human OA cartilage (anti-AGEG immunoblot)", "format": "cell-based", "conditions": "48 h, anti-AGEG neoepitope, read-out: inhibition of aggrecan degradation", "procedure": "Samples were separated by SDS-PAGE under reducing conditions (5% β-mercaptoethanol) on BOLT, 4–12%, Bis-Tris Gels (Invitrogen) in MES Running Buffer (NuPAGE). Proteins were transferred onto a nitrocellulose membrane using Trans-Blot Turbo™ Transfer System (BioRad), at 25 V, 2.5 A for 30 min. Membranes were blocked with 3% BSA/PBS for 1 h at room temperature. Aggrecan fragments generated by ADAMTS cleavage at E^392-A^393[8] or E^1953-A^1954[68] were detected using mouse monoclonal anti-ARGSV antibody (BC3, Life Technologies, MA3-16888, 4 µg/ml) or polyclonal anti-AGEG neoepitope antibody (serum, 1:200 dilution)[12],[33], respectively, followed by the appropriate horseradish peroxidase (HRP)-conjugated secondary antibodies (polyclonal Goat Anti-Mouse P0447, 0.1 ng/µl and polyclonal Goat Anti-Rabbit, P0448, 0.03 ng/µl, both from Agilent Technologies LDA UK Ltd). All antibodies were diluted in 0.5% bovine serum albumin (BSA)/PBS. Washes between each step were carried out in triplicate, for 15 min each, with PBS-Tween (0.1%). Following addition of the chemiluminescent HRP substrate (Millipore, WBKL30500) membranes were imaged using Bio-Rad Chemidoc Touch Imaging System. Analysis was carried out using BioRad ImageLab software (version 5.2.1) using sequential exposures to avoid saturation artifacts. Figures for unprocessed blots are included in Supplementary information Fig. S4 and Fig. S5 with highlighted regions (in red boxes) corresponding to the data reported in the main manuscript figures.\nHuman OA cartilage was obtained from Clatterbridge Hospital, Wirral, UK, following total knee arthroplasty procedures with informed patient consent in full compliance with national and institutional ethical requirements, the United Kingdom Human Tissue Act, and the Declaration of Helsinki (REC 18/WA/0344). […]\nExplants were incubated in 0.2 ml of fresh DMEM containing compound 2 (10 or 100 µM) or 4b (10 µM) for 48 h. […] Proteins were precipitated using ice-cold acetone, dissolved in the SDS-sampling buffer and then analyzed by immunoblot using anti-AGEG aggrecan neoepitope antibody as before."}, "[3]": {"conditions": "tested at 10 or 50 µM, concentration of this value not stated"}}}
{"smiles": "CCC(C)N(Cc1cn(CCCO[C@@H]2O[C@H](CO)[C@@H](O[C@@H]3O[C@H](CO)[C@H](O)[C@H](O)[C@H]3O)[C@H](O)[C@H]2NC(C)=O)nn1)S(=O)(=O)c1ccc(-c2ccccc2)cc1", "note": "(stereo partly drawn) [compound 2, N-((2R,3R,4R,5 S,6R)-2-(3-(4-((N-(sec-butyl)-[1,1’-biphenyl]-4-sulfonamido)methyl)-1H-1,2,3-triazol-1-yl)propoxy)-4-hydroxy-6-(hydroxymethyl)-5-(((2 S,3R,4 S,5R,6R)-3,4,5-trihydroxy-6-(hydroxymethyl)tetrahydro-2 H-pyran-2-yl)oxy)tetrahydro-2 H-pyran-3-yl)acetamide]", "values": [{"measurement": "velocity of cell migration", "setting": "[1]; 10 or 50 µM", "result": "without affecting"}, {"measurement": "inhibition in directionality of cell migration", "setting": "[1]; [3]", "result": 43, "unit": "%"}, {"measurement": "inhibition in pseudopod elongation", "setting": "[1]; [3]", "result": 35, "unit": "%"}, {"measurement": "inhibition at 10 µM", "setting": "[2]; 10 µM", "result": 63, "unit": "%"}, {"measurement": "inhibition at 100 µM", "setting": "[2]; 100 µM", "result": 85, "unit": "%"}]}
